Data set [1] is described as follows: Solubility (physico-chemical characteristics). Type of data set: physicochemical.
Data set [2] in a line: Potentiometric titration profile (pH1/2 values). Type of data set: physicochemical. The following applies: methylcellosolve:water 4:1, titration with 0.01N NaOH.
The subject of data set [3] is Escherichia coli SKF 12140. Description: In vitro antibacterial activity, two-fold dilution MIC in microtiter system. It is filed as cell-based. The following applies: Isosensitest broth, inoculum about 10^4 cfu/ml, 18-24 h at 37° C. The method, then: (§1) The in vitro antibacterial activity of L 17392 was determined using the two-fold dilution method in microtiter system. Todd-Hewitt broth (Difco) was used for streptococci and Isosensitest broth (Oxoid) for staphylococci and gram-negative bacteria. Overnight broth cultures were diluted so that the final inoculum was about 10^4 colony-forming units per ml (cfu/ml).

Data set [4] has as its system Proteus vulgaris × 19 H ATCC 881. The description is as above. It is filed as cell-based. Conditions: Isosensitest broth, inoculum about 10^4 cfu/ml, 18-24 h at 37° C. The method, then: as §1
For data set [5], the system named is Pseudomonas aeruginosa ATCC 10145. The data set is described as above. Conditions: Isosensitest broth, inoculum about 10^4 cfu/ml, 18-24 h at 37° C. Type of data set: cell-based. The method, then: as §1
Data set [6] has as its system Staphylococcus aureus ATCC 6538. Described as above. It is filed as cell-based. Conditions: Isosensitest broth, inoculum about 10^4 cfu/ml, 18-24 h at 37° C. The method, then: as §1
The test system of data set [7] is Streptococcus faecalis ATCC 7080. The data set is described as above. It is filed as cell-based. Conditions: Todd-Hewitt broth, inoculum about 10^4 cfu/ml, 18-24 h at 37° C. The method, then: as §1
In data set [8] the test system is Streptococcus pneumoniae UC 41. The data set is described as above. It is filed as cell-based. The following applies: Todd-Hewitt broth, inoculum about 10^4 cfu/ml, 18-24 h at 37° C. The method, then: as §1
In data set [9] the test system is Streptococcus pyogenes C 203. Described as above. Type of data set: cell-based. Conditions: Todd-Hewitt broth, inoculum about 10^4 cfu/ml, 18-24 h at 37° C. The method, then:
as §1

Data set [10] has as its system Staplylococcus aureus Tour. The data set is described as above. It is filed as cell-based, Staphylococcus aureus. The method, then: The in vitro antibacterial activity of L 17392 was determined using the two-fold dilution method in microtiter system. Todd-Hewitt broth (Difco) was used for streptococci and Isosensitest broth (Oxoid) for staphylococci and gram-negative bacteria. Overnight broth cultures were diluted so that the final inoculum was about 10^4 colony-forming units per ml (cfu/ml). […] The obtained results are reported in Table I below: | ^(a) Inoculum: 10^6 cfu/ml | ^(b) Determined in the presence of 30% bovine serum

The subject of data set [11] is Staphylococcus epieermidis ATCC 12228. The description is as above. Type of data set: cell-based, Staphylococcus epidermidis. Conditions: Isosensitest broth, inoculum about 10^4 cfu/ml, 18-24 h at 37° C. The method, then: as §1
For a further data set, the system named is S. aureus L 1096. Description: MIC against clinical isolate methicillin-resistant staphylococci. Type of data set: cell-based. The method, then:
as §1

The subject of a further data set is S. aureus L 1097. The description is as above. It is filed as cell-based. The method, then:
as §1

A further data set concerns S. aureus L 1524. The data set is described as above. It is filed as cell-based. The method, then: as §1
The next data set concerns S. aureus L 1526. The data set is described as above. Type of data set: cell-based. The method, then:
as §1

In a further data set the test system is S. epidermidis L 1142. Described as above. Type of data set: cell-based. The method, then:
as §1

The subject of another data set is S. epidermidis L 1372. The data set is described as above. Type of data set: cell-based. The method, then:
as §1

For another data set, the system named is S. epidermidis L 1378. The data set is described as above. It is filed as cell-based. The method, then:
as §1

In a further data set the test system is S. epidermidis L 785. Described as above. It is filed as cell-based. The method, then:
as §1

The next data set relates to S. epidermidis L 835. Described as above. Type of data set: cell-based. The method, then: as §1
The test system of data set [12] is staphylocci (S. aureus, S. epidermidis). Nature of the data set: Antibacterial activity against staphylococci, in words. Type of data set: cell-based. The method, then: as §1
Data set [13] relates to clinical isolate methicillin-resistant staphylococci (S. aureus, S. epidermidis). Description: Antibacterial activity against methicillin-resistant staphylococci, in words. It is filed as cell-based. The following applies: various clinical isolates. The method, then: as §1
Data set [14] in a line: pKa of a sample dissolved in methylcellosolve/water 4:1. Type of data set: physicochemical.

In brackets after ≈: the same amount, converted by molar mass. Where only a bound is given, the exact number is not on record here.

In the case of `CC(=O)N[C@@H]1[C@@H](O[C@H]2c3ccc(c(Cl)c3)Oc3cc4cc(c3O)Oc3ccc(cc3Cl)C[C@@H]3NC(=O)[C@@H](N)c5ccc(O)c(c5)Oc5cc(O)cc(c5)[C@@H](NC3=O)C(=O)N[C@@H]4C(=O)N[C@@H]3C(=O)N[C@H]2C(=O)N[C@@H](C(=O)O)c2cc(O)cc(O)c2-c2cc3ccc2O)O[C@@H](CO)[C@H](O)[C@H]1O` (stereo in doubt) [antibiotic L 17046], the solubility result is “freely soluble” in data set [1] (dimethylformamide, dimethylsulfoxide, propyleneglycol and methylcellosolve); “slightly soluble” in data set [1] (methanol); “almost insoluble” in [1] (n-hexane, ethyl ether and acetone); “freely soluble” in [1] (water at pH>8.0). Also, the “pH1/2 value, third titration slope” value in data set [2] (five equivalents) is on record as 11. In addition, the “pH1/2 value, first titration slope” value in data set [2] (one equivalent) is reported as 5.0. In addition, the “pH1/2 value, second titration slope” value in data set [2] (one equivalent) is given as 7.0.
In the case of `N[C@H]1C(=O)N[C@@H]2Cc3ccc(c(Cl)c3)Oc3cc4cc(c3O)Oc3ccc(cc3Cl)[C@@H](O)[C@@H]3NC(=O)[C@H](NC(=O)[C@@H]4NC(=O)[C@@H](NC2=O)c2cc(O)cc(c2)Oc2cc1ccc2O)c1ccc(O)c(c1)-c1c(O)cc(O)cc1[C@@H](C(=O)O)NC3=O` [antibiotic L 17392, deglucoteicoplanin], the MIC was 25 µg/mL (≈ 20.9 µM) in data set [3]; 50 µg/mL (≈ 41.7 µM) in data set [4]; above 100 µg/mL in data set [5]; 0.025 µg/mL (≈ 0.0209 µM) in [6]; 0.1 µg/mL (≈ 0.0834 µM) in data set [7]; 0.05 µg/mL (≈ 0.0417 µM) in data set [8]. Moreover, the MIC came to 0.05 µg/mL (≈ 0.0417 µM) in data set [9]; 0.2 µg/mL in [10] (Determined in the presence of 30% bovine serum); 0.2 µg/mL (≈ 0.167 µM) in [10] (Inoculum: 10^6 cfu/ml); 0.05 µg/mL (≈ 0.0417 µM) in data set [10] (Isosensitest broth, inoculum about 10^4 cfu/ml, 18-24 h at 37° C.); 0.0125 µg/mL (≈ 0.0104 µM) in data set [11]; 0.05 µg/mL (≈ 0.0417 µM) in the data set with S. aureus L 1096. Further, the MIC was 0.05 µg/mL (≈ 0.0417 µM) with S. aureus L 1097; 0.1 µg/mL (≈ 0.0834 µM) in the data set on S. aureus L 1524; 0.05 µg/mL (≈ 0.0417 µM) with S. aureus L 1526; 0.05 µg/mL (≈ 0.0417 µM) with S. epidermidis L 1142; 0.2 µg/mL (≈ 0.167 µM) in the data set with S. epidermidis L 1372; 0.05 µg/mL (≈ 0.0417 µM) against S. epidermidis L 1378. Also, the MIC in the data set with S. epidermidis L 785 and against S. epidermidis L 835 was 0.05 µg/mL (≈ 0.0417 µM) in each case. Further, the solubility result in [1] (aqueous methanol, ethanol and acetone) is given as “soluble”; in data set [1] (ethyl alcohol and dimethylformamide), “slightly soluble”; in data set [1] (water at a pH higher than 9), “soluble”. Besides, the “activity against staphylococci (in words)” value in data set [12] is “very active”. For the same compound, the “activity against methicillin-resistant staphylococci (in words)” value in [13] is “very effective”.
Consider “deglucoteicoplanin benzyl ester, hydrochloride”, for which, in data set [14], the pKa value is 6.67.

(Values after patent publication US4882419A, “Process for preparing antibiotic L 17392 (deglucoteicoplanin)” (Gruppo Lepetit S.p.A., priority 1984, dated 1989).)
